pEC50: −log10 of the molar value.
What was measured:
HMC3 cells = experiment: HMC3 cholesterol efflux; format: cell-based, human; conditions: HMC3, 20 μM peptide, 4 hours
Procedure: (§1) FIGS. 27A-27B and FIG. 28 illustrate HMC3 cholesterol efflux. Fully confluent 96-well plates of HMC3 cells were treated for 1 hour in serum-free EMEM containing 10 mM methyl-β-cyclodextrin, 100 μM cholesterol, and 25 μM BODIPY cholesterol. Cells were then washed and incubated overnight in serum free EMEM containing 1 μM LXR agonist GW3965, 2 μg/mL ACAT inhibitor, and 0.2% BSA (LXR Agonist treated), or serum-free EMEM containing 2 μg/mL ACAT inhibitor, and 0.2% BSA (Control). Cells were washed and incubated with 20 μM peptides diluted in serum-free Fluorobrite DMEM for 4 hours at 37° C. Media was transferred to a new 96-well plate and fresh serum-free Fluorobrite DMEM was placed on the cells. Media and cellular fluorescence were read on a Promega GloMax at 475 nm excitation, 500-550 emission. Fluorescence values were background corrected from no treatment conditions and percent efflux was calculated by the following equation: % efflux=(Media Fluorescence values)/(Media+Cell Fluorescence values). Data are presented as mean+SD over two runs per peptide.
as §1, with “FIGS. 30A-30J show” for “FIGS. 27A-27B and FIG. 28 illustrate”, “cholesterol efflux titration curves for the indicated peptides.” for “cholesterol efflux.”, “μM” for “μM LXR agonist”, “or serum free” for “or serum-free”, “with 0-100” for “with 20”, “peptides serially” for “peptides”

ABCA1 = molecular target: T1, ABCA1 (Homo sapiens, UniProt O95477); experiment: membrane ABCA1 stability testing in ARPE-19 cells treated with mCRP; format: cell-based; conditions: ARPE-19, mCRP, 20 μM peptide, 24 hours
T1 construct: endogenous in cells; host or cells: ARPE-19
T1 sequence (O95477 whole entry): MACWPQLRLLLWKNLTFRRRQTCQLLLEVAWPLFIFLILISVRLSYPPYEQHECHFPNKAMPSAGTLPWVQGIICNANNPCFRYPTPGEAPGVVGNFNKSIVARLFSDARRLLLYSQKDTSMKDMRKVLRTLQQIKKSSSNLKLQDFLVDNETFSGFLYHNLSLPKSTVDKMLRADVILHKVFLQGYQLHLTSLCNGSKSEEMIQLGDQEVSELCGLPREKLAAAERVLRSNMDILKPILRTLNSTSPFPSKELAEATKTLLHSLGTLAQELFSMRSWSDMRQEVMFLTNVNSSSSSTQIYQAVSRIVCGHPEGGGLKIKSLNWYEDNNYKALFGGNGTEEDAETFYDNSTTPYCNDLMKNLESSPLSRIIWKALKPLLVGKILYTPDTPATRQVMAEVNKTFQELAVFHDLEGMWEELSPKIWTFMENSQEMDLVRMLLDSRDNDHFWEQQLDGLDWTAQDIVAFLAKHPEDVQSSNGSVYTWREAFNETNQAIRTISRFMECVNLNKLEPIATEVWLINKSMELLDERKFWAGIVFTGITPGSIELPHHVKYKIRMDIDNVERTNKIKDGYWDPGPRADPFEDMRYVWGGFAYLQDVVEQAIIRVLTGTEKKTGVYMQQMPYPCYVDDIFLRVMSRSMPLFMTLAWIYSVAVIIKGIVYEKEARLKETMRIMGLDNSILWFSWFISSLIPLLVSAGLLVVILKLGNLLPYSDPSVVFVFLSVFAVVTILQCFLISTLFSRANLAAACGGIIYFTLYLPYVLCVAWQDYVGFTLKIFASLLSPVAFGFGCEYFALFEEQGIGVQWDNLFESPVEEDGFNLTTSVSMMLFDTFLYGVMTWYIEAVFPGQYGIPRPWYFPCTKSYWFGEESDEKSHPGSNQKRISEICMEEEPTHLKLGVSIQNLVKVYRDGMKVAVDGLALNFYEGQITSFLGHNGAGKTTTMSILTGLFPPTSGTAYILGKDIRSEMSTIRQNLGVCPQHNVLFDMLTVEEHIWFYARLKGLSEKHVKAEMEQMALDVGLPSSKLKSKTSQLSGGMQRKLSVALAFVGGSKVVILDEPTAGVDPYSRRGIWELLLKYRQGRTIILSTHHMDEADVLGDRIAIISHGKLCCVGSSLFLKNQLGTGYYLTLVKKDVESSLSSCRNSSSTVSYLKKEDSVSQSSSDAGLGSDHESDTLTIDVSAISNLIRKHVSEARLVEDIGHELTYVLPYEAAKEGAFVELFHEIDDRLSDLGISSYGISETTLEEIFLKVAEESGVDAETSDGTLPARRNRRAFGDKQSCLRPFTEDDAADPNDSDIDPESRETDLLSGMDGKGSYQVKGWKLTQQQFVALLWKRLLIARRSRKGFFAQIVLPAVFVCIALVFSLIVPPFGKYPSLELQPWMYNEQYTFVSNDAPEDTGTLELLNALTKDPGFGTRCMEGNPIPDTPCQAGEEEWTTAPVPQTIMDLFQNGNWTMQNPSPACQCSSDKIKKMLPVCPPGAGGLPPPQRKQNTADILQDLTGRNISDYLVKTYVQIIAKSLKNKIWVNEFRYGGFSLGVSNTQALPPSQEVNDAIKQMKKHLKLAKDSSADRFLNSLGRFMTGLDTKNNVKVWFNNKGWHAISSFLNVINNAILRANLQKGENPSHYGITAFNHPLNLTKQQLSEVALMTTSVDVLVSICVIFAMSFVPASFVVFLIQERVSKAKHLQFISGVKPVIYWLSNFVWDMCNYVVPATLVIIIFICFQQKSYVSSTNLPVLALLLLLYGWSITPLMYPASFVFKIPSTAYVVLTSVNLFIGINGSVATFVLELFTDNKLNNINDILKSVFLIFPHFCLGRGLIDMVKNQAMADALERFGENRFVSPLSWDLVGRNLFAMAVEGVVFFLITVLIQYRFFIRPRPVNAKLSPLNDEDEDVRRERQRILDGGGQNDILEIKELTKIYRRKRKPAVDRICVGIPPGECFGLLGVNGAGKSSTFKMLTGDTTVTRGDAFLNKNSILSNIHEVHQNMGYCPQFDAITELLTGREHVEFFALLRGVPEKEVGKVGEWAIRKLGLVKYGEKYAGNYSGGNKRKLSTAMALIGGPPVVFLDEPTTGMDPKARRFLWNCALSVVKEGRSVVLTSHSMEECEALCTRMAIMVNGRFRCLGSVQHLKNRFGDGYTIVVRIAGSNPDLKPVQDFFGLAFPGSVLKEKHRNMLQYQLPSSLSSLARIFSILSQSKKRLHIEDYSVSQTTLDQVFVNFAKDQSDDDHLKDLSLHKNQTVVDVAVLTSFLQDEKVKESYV
Procedure: ARPE-19 cells were seeded at 100,000 cells per well on 12-well plates and were allowed to grow to confluence. To prepare monomeric CRP (mCRP), recombinant CRP was prepared in a PBS solution containing 8 M Urea and 10 mM EDTA and incubated at 37° C. for 2 hours prior to desalting with a Zeba spin column (7K MW cutoff). mCRP was prepared to a 2× solution of 20 μg/mL. A 2× solution of 40 μM peptides was prepared in serum-free DMEM and serially diluted 1:2 over 4 concentrations. mCRP and peptides were added 1:1 to cells for 24 hours at 37° C. before isolating membrane protein and measuring membrane ABCA1 levels by western blot. Blots were quantified in ImageJ. Signals were further normalized to the LXR agonist treated group to determine percent (%) ABCA1 remaining. Treatment with LXR agonist increased membrane ABCA1 levels in this assay, but following treatment with mCRP, membrane ABCA1 levels were decreased.
FIGS. 35 and 36 show membrane ABCA1 stability testing using ARPE-19 cells. ARPE-19 cells were seeded at 100,000 cells per well on 12-well plates and were allowed to grow to confluence. To prepare monomeric CRP (mCRP), recombinant CRP was prepared in a PBS solution containing 8 M Urea and 10 mM EDTA and incubated at 37° C. for 2 hours prior to desalting with a Zeba spin column (7K MW cutoff). mCRP was prepared to a 2× solution of 20 μg/mL. A 2× solution of 40 μM peptides was prepared in serum-free DMEM. CRP and peptides were added 1:1 to cells for 24 hours at 37° C. before isolating membrane protein and measuring membrane ABCA1 levels by western blot. Blots were quantified in ImageJ. In FIG. 35, Signals were further normalized to the T-087 treated group to determine percent (%) ABCA1 levels compared to peptide T-087 treated cells. In FIG. 36, Signals were further normalized to the peptide T-101 treated group to determine percent (%) ABCA1 levels compared to peptide T-101 treated cells.

[1] = DMPC solubility assay, 0.5 mM DMPC (turbidity reduction); format: biochemical; conditions: for DMPC solubilizing activity: FIGS. 2A-2D and 3A-3C; for pEC50: 3.16-100 μM peptides, 15 minutes
Procedure: In this example, peptide stocks were diluted to 200 μM in H2O (a 2× solution) and 50 μL of peptide solution was transferred in triplicate into 96-well plates. A one mM solution of 1,2-dimyristoyl-sn-glycero-3-phosphocholine (DMPC) in H2O was prepared, and using a multichannel pipet, 50 μL DMPC solution was rapidly added to the plate. Peptide and lipid solutions were incubated at room temperature for 15 minutes with a final concentration of 100 μM peptides and 0.5 mM DMPC. After 15 minutes, absorbance was read on a plate reader at 405 nm. […] Data are presented as mean+SD over two runs.
In these experiments, DMPC solubility titration curves were generated. Peptide stocks were diluted to 200 μM in H2O (a 2× solution) and serially diluted in H2O over 4 concentrations, then 50 μL of peptide solutions were distributed in triplicate into 96-well plates. A 1 mM solution of 1,2-dimyristoyl-sn-glycero-3-phosphocholine (DMPC) in H2O was prepared, and using a multichannel pipet, 50 μL DMPC solution was rapidly added to the plate. Peptide and lipid solutions were incubated at room temperature for 15 minutes with final concentrations of 3.16-100 μM peptides and 0.5 mM DMPC. After 15 minutes, absorbance was read on a plate reader at 405 nm. […] Data are presented as mean+SD over two runs. Non-linear regression was used to calculate EC50 values.

| membrane ABCA1 levels compared to peptide T-101 treated cells (ABCA1) | Substance | cholesterol efflux in the presence of LXR agonist (HMC3 cells) | further results |
| --- | --- | --- | --- |
| reduction of membrane ABCA1 levels | T-138: variant of peptide T-101 (RSGADALESALKELKRFAREWT) | greater cholesterol efflux | – |
| – | T-026: therapeutic peptide (GFGDWIDSIEAFSRSLHS) | – | DMPC solubilizing activity [1]: significant activity |
| – | T-140: variant of peptide T-101 (RSGADALESALKELKRFIRAWT) | greater cholesterol efflux | – |
| – | T-020: therapeutic peptide (DGDKLCDRLAEYCARAKEAFDR) | – | DMPC solubilizing activity [1]: did not have significant solubilizing activity |
| – | T-173: variant of peptide T-087 (AAAERFRALFKELADYFR) | – | membrane ABCA1 levels compared to peptide T-087 treated cells (ABCA1): reduction of membrane ABCA1 levels |
| – | T-019: therapeutic peptide (NMDEINKRLHAYEEGVKKAADE) | – | DMPC solubilizing activity [1]: significant activity |
| reduction of membrane ABCA1 levels | T-104: therapeutic peptide (TVRGSADALLEHLTRAWDGFNR) | – | – |
| – | T-177: variant of peptide T-087 (DAWERFRALFKEAAAYFR) | – | membrane ABCA1 levels compared to peptide T-087 treated cells (ABCA1): reduction of membrane ABCA1 levels |
| – | T-005: therapeutic peptide (PLRAELQEGARQKLHELQEKLS) | – | DMPC solubilizing activity [1]: did not have significant solubilizing activity |
| reduction of membrane ABCA1 levels | T-145: variant of peptide T-101 (RSGADALESGLKELKRFIREWT) | greater cholesterol efflux | – |
| reduction of membrane ABCA1 levels | T-130: variant of peptide T-101 (RSGADALESPLKELKRFIREWT) | – | – |
| – | T-151: variant of peptide T-101 (RSGADALESALKELKRFIRAAA) | greater cholesterol efflux | – |
| – | HLRKLRKRLLRDGDDLQDRLAEYQARAKEAFDR [T-051, therapeutic peptide] | – | pEC50 [1]: 4.81 |
| – | T-146: variant of peptide T-101 (AAAADALESALKELKRFIREWT) | greater cholesterol efflux | – |
| – | T-143: variant of peptide T-101 (RSGGDALESALKELKRFIREWT) | greater cholesterol efflux | – |
| – | T-144: variant of peptide T-101 (RSGADGLESALKELKRFIREWT) | greater cholesterol efflux | – |
| – | T-014: therapeutic peptide (EQAQQIRLQAEAFQARLKSWFE) | – | DMPC solubilizing activity [1]: significant activity |
| reduction of membrane ABCA1 levels | T-126: variant of peptide T-101 (RSGADPLESALKELKRFIREWT) | greater cholesterol efflux | – |

| membrane ABCA1 levels compared to peptide T-101 treated cells (ABCA1) | Substance | cholesterol efflux in the presence of LXR agonist (HMC3 cells) | further results |
| --- | --- | --- | --- |
| – | HLRKLRKRLLRDGDKLSDRLAEYVARAKEAFDR [T-080, therapeutic peptide] | – | pEC50 [1]: 3.81 |
| reduction of membrane ABCA1 levels | T-141: variant of peptide T-101 (RSGADALESALKELKRFIREAT) | greater cholesterol efflux | – |
| – | T-024: therapeutic peptide (FEHWISGIYSECKHLIQE) | – | DMPC solubilizing activity [1]: significant activity |
| – | T-011: therapeutic peptide (DADDLQKRLAVYQAGAREGAER) | – | DMPC solubilizing activity [1]: significant activity |
| reduction of membrane ABCA1 levels | T-134: variant of peptide T-101 (RSGADALESALKEAKRFIREWT) | greater cholesterol efflux | – |
| – | HLRKLRKRLLRDGDKLQDRLAEYQAGAKEAFDR [T-054, therapeutic peptide] | – | pEC50 [1]: 3.91 |
| – | T-099: therapeutic peptide (RRMKDYLKKFQETLKREFRDWE) | – | DMPC solubilizing activity [1]: did not have significant solubilizing activity |
| reduction of membrane ABCA1 levels | T-124: variant of peptide T-101 (RSGPDALESALKELKRFIREWT) | greater cholesterol efflux | – |
| reduction of membrane ABCA1 levels | T-149: variant of peptide T-101 (RSGADALESALKEAAAFIREWT) | greater cholesterol efflux | – |
| – | T-142: variant of peptide T-101 (RSGADALESALKELKRFIREWA) | greater cholesterol efflux | – |
| reduction of membrane ABCA1 levels | T-135: variant of peptide T-101 (RSGADALESALKELARFIREWT) | greater cholesterol efflux | – |
| reduction of membrane ABCA1 levels | T-137: variant of peptide T-101 (RSGADALESALKELKRAIREWT) | greater cholesterol efflux | – |
| reduction of membrane ABCA1 levels | T-121: variant of peptide T-101 (ASGADALESALKELKRFIREWT) | greater cholesterol efflux | – |
| reduction of membrane ABCA1 levels | T-132: variant of peptide T-101 (RSGADALESALAELKRFIREWT) | – | – |
| reduction of membrane ABCA1 levels | T-128: variant of peptide T-101 (RSGADALASALKELKRFIREWT) | greater cholesterol efflux | – |
| reduction of membrane ABCA1 levels | T-127: variant of peptide T-101 (RSGADAAESAAKELKRFIREWT) | – | – |
| reduction of membrane ABCA1 levels | T-150: variant of peptide T-101 (RSGADALESALKELKRAAAEWT) | greater cholesterol efflux | – |
| reduction of membrane ABCA1 levels | T-148: variant of peptide T-101 (RSGADALESAAAALKRFIREWT) | greater cholesterol efflux | – |

From patent US20260115250A1, “METHODS OF TREATING AGE-RELATED MACULAR DEGENERATION” (Character Biosciences, Inc., priority 2022, published 2026)
